# Patent US8921267B2, “Safening 6-(trisubstituted phenyl)-4-amino-2-pyridinecarboxylate herbicide injury on cereal crops” (Dow AgroSciences LLC, priority 2008, dated 2014)
# Assays:
# [1] = system: Russian thistle (Salsola iberica L; SASKR); assay: Postemergence herbicidal activity, greenhouse, visual injury: Russian thistle; assay type: in vivo; design: key: visual injury, 0–100%: 0 = no injury, 100 = complete kill
# Description: (§1) Evaluation of Postemergence Herbicidal Safening in Cereal Crops
# (§2) Seeds of the desired test plant species were planted in Sun Gro MetroMix® 306 planting mixture, which typically has a pH of 6.0 to 6.8 and an organic matter content of about 30 percent, in plastic pots with a surface area of 103.2 square centimeters (cm^2). When required to ensure good germination and healthy plants, a fungicide treatment and/or other chemical or physical treatment was applied. The plants were grown for 7-36 days (d) in a greenhouse with an approximate 14-hour (h) photoperiod which was maintained at about 18° C. during the day and 17° C. during the night. Nutrients and water were added on a regular basis and supplemental lighting was provided with overhead metal halide 1000-Watt lamps as necessary. The plants were employed for testing when they reached the second or third true leaf stage.
# (§3) Weighed amounts of esters (methyl) or salts (TEA [triethylammonium], K [potassium]) of 4-amino-3-chloro-6-(4-chloro-2-fluoro-3-methoxyphenyl)pyridine-2-carboxylic acid (Compound 1) were dissolved in a volume of 97:3 volume/volume (v/v) acetone/dimethylsulfoxide (DMSO) to obtain stock solutions. […] The concentrated stock solutions were diluted with an aqueous mixture of 1.5% v/v of Agri-dex crop oil concentrate to provide the appropriate application rates. Compound requirements are based upon a 12 mL application volume at a rate of 187 liters per hectare (L/ha). Stocks solutions of the safeners were prepared following the same procedure. Spray solutions of the safeners and experimental compound mixtures were prepared by adding the stock solutions to the appropriate amount of dilution solution to form a 12 mL spray solution with active ingredients in two-way combinations. Formulated compounds were applied to the plant material with an overhead Mandel track sprayer equipped with 8002E nozzles calibrated to deliver 187 L/ha over an application area of 0.503 square meters (m^2) at a spray height of 18 inches (43 centimeters (cm)) above average plant canopy. Control plants were sprayed in the same manner with the solvent blank.
# (§4) The treated plants and control plants were placed in a greenhouse as described above and watered by sub-irrigation to prevent wash-off of the test compounds. After 20-22 d, the condition of the test plants as compared with that of the control plants was determined visually and scored on a scale of 0 to 100 percent where 0 corresponds to no injury and 100 corresponds to complete kill.
# (§5) Colby's equation was used to determine the herbicidal effects expected from the mixtures (Colby, S. R. Calculation of the synergistic and antagonistic response of herbicide combinations. Weeds 1967, 15, 20-22.).
# (§6) The following equation was used to calculate the expected activity of mixtures containing two active ingredients, A and B: Expected=A+B−(A×B/100)
# (§7) A=observed efficacy of active ingredient A at the same concentration as used in the mixture.
# (§8) B=observed efficacy of active ingredient B at the same concentration as used in the mixture.
# [2] = system: chickweed (Stellaria media L; STEME); assay: Postemergence herbicidal activity, greenhouse, visual injury: chickweed; assay type: in vivo; design: key: visual injury, 0–100%: 0 = no injury, 100 = complete kill
# Description: as §1, §2, §3, §4, §5, §6, §7, §8
# [3] = system: cleavers (Galium aparine L; GALAP); assay: Postemergence herbicidal activity, greenhouse, visual injury: cleavers; assay type: in vivo; design: key: visual injury, 0–100%: 0 = no injury, 100 = complete kill
# Description: as §1, §2, §3, §4, §5, §6, §7, §8
# barley (HORVW) = assay: Postemergence herbicidal safening, greenhouse, visual injury: barley (HORVW)
# [4] = system: wild pansy (Viola tricolor L; VIOTR); assay: Postemergence herbicidal activity, greenhouse, visual injury: wild pansy; assay type: in vivo; design: key: visual injury, 0–100%: 0 = no injury, 100 = complete kill
# Description: as §1, §2, §3, §4, §5, §6, §7, §8
# [5] = system: barley (Hordeum vulgare L; HORVS); assay: Postemergence herbicidal safening, greenhouse, visual injury: barley; assay type: in vivo
# Description: as §1, §2, §3, §4, §5, §6, §7, §8
# [6] = system: corn poppy (Papaver rhoeas L; PAPRH); assay: Postemergence herbicidal activity, greenhouse, visual injury: corn poppy; assay type: in vivo
# Description: as §1, §2, §3, §4, §5, §6, §7, §8
# [7] = system: wild buckwheat (Polygonum convolvulus L; POLCO); assay: Postemergence herbicidal activity, greenhouse, visual injury: wild buckwheat; assay type: in vivo
# Description: as §1, §2, §3, §4, §5, §6, §7, §8
# [8] = system: purple deadnettle (Lamium purpureum L; LAMPU); assay: Postemergence herbicidal activity, greenhouse, visual injury: purple deadnettle; assay type: in vivo; design: key: visual injury, 0–100%: 0 = no injury, 100 = complete kill
# Description: as §1, §2, §3, §4, §5, §6, §7, §8
# [9] = system: wheat (Triticum aestivum L; TRZAS); assay: Postemergence herbicidal safening, greenhouse, visual injury: wheat; assay type: in vivo
# Description: as §1, §2, §3, §4, §5, §6, §7, §8
# [10] = system: bird's-eye speedwell (Veronica persica L; VERPE); assay: Postemergence herbicidal activity, greenhouse, visual injury: bird's-eye speedwell; assay type: in vivo; design: key: visual injury, 0–100%: 0 = no injury, 100 = complete kill
# Description: as §1, §2, §3, §4, §5, §6, §7, §8
# [11] = system: durum wheat (Triticum durum L; TRZDU); assay: Postemergence herbicidal safening, greenhouse, visual injury: durum wheat; assay type: in vivo
# Description: as §1, §2, §3, §4, §5, §6, §7, §8
# [12] = system: wheat (Triticum aestivum L; TRZAW); assay: Postemergence herbicidal safening, greenhouse, visual injury: wheat (TRZAW); assay type: in vivo
# Description: as §1, §2, §3, §4, §5, §6, §7, §8
# [13] = Compound 1 Methyl ester 35 g/ha alone
smiles,measurement,setting,value
"CC1(C)CN2C(=O)CCC2(C)N(C(=O)C(Cl)Cl)C1 (racemic) [Dicyclonon, (RS)-1-dichloroacetyl-3,3,8a-trimethylperhydropyrrolo[1,2]pyrimidin-6-one, reference compound]",SASKR Ob,[1]; applied alone at 17.5 g/ha,0%
same,SASKR Ob,[1]; applied alone at 35 g/ha,0%
same,SASKR Ob,[1]; applied alone at 70 g/ha,0%
same,SASKR Ob,[1]; applied alone at 140 g/ha,0%
same,STEME Ob,[2]; applied alone at 17.5 g/ha,0%
same,STEME Ob,[2]; applied alone at 35 g/ha,0%
same,STEME Ob,[2]; applied alone at 70 g/ha,0%
same,STEME Ob,[2]; applied alone at 140 g/ha,0%
same,GALAP Ob,[3]; applied alone at 17.5 g/ha,0%
same,GALAP Ob,[3]; applied alone at 35 g/ha,0%
same,GALAP Ob,[3]; applied alone at 70 g/ha,0%
same,GALAP Ob,[3]; applied alone at 140 g/ha,0%
same,HORVW Ob (Observed values),barley (HORVW); safener 4.4 g/ha alone,0%
same,HORVW Ob (Observed values),barley (HORVW); safener 8.8 g/ha alone,0%
same,HORVW Ob (Observed values),barley (HORVW); safener 17.5 g/ha alone,0%
same,HORVW Ob (Observed values),barley (HORVW); safener 35 g/ha alone,0%
same,VIOTR Ob,[4]; applied alone at 17.5 g/ha,0%
same,VIOTR Ob,[4]; applied alone at 35 g/ha,0%
same,VIOTR Ob,[4]; applied alone at 70 g/ha,0%
same,VIOTR Ob,[4]; applied alone at 140 g/ha,0%
same,HORVS Ob,[5]; applied alone at 17.5 g/ha,0%
same,HORVS Ob,[5]; applied alone at 35 g/ha,0%
same,HORVS Ob,[5]; applied alone at 70 g/ha,0%
same,HORVS Ob,[5]; applied alone at 140 g/ha,0%
same,PAPRH Ob,[6]; applied alone at 17.5 g/ha,0%
same,PAPRH Ob,[6]; applied alone at 35 g/ha,0%
same,PAPRH Ob,[6]; applied alone at 70 g/ha,0%
same,PAPRH Ob,[6]; applied alone at 140 g/ha,0%
same,PAPRH Ob (Observed values),[6]; safener 4.4 g/ha alone,0
same,PAPRH Ob (Observed values),[6]; safener 8.8 g/ha alone,0
same,PAPRH Ob (Observed values),[6]; safener 17.5 g/ha alone,0
same,PAPRH Ob (Observed values),[6]; safener 35 g/ha alone,0
same,POLCO Ob,[7]; applied alone at 17.5 g/ha,0%
same,POLCO Ob,[7]; applied alone at 35 g/ha,0%
same,POLCO Ob,[7]; applied alone at 70 g/ha,0%
same,POLCO Ob,[7]; applied alone at 140 g/ha,0%
same,LAMPU Ob (Observed values),[8]; safener 4.4 g/ha alone,0
same,LAMPU Ob (Observed values),[8]; safener 8.8 g/ha alone,0
same,LAMPU Ob (Observed values),[8]; safener 17.5 g/ha alone,0
same,LAMPU Ob (Observed values),[8]; safener 35 g/ha alone,0
same,TRZAS Ob,[9]; applied alone at 17.5 g/ha,0%
same,TRZAS Ob,[9]; applied alone at 35 g/ha,0%
same,TRZAS Ob,[9]; applied alone at 70 g/ha,0%
same,TRZAS Ob,[9]; applied alone at 140 g/ha,0%
same,VERPE Ob,[10]; applied alone at 17.5 g/ha,0%
same,VERPE Ob,[10]; applied alone at 35 g/ha,0%
same,VERPE Ob,[10]; applied alone at 70 g/ha,0%
same,VERPE Ob,[10]; applied alone at 140 g/ha,0%
COC(=O)c1nc(-c2ccc(Cl)c(OC)c2F)cc(N)c1Cl [1 Methyl ester],TRZDU Ob (Observed values),[11]; [13],42%
same,HORVW Ob (Observed values),barley (HORVW); [13],50%
same,HORVS Ob (Observed values),[5]; [13],33
same,PAPRH Ob (Observed values),[6]; [13],97
same,TRZAW Ob (Observed values),[12]; [13],35%
same,LAMPU Ob (Observed values),[8]; [13],97
same,TRZAS Ob (Observed values),[9]; [13],50
"O=C(C(Cl)Cl)N1CCOC12CCCCC2 [AD67, 4-(dichloroacetyl)-1-oxa-4-azaspiro[4,5]decane, reference compound]",SASKR Ob,[1]; applied alone at 17.5 g/ha,0%
same,SASKR Ob,[1]; applied alone at 35 g/ha,0%
same,SASKR Ob,[1]; applied alone at 70 g/ha,0%
same,SASKR Ob,[1]; applied alone at 140 g/ha,0%
same,STEME Ob,[2]; applied alone at 17.5 g/ha,0%
same,STEME Ob,[2]; applied alone at 35 g/ha,0%
same,STEME Ob,[2]; applied alone at 70 g/ha,0%
same,STEME Ob,[2]; applied alone at 140 g/ha,0%
same,GALAP Ob,[3]; applied alone at 17.5 g/ha,0%
same,GALAP Ob,[3]; applied alone at 35 g/ha,0%
same,GALAP Ob,[3]; applied alone at 70 g/ha,0%
same,GALAP Ob,[3]; applied alone at 140 g/ha,0%
same,VIOTR Ob,[4]; applied alone at 17.5 g/ha,0%
same,VIOTR Ob,[4]; applied alone at 35 g/ha,0%
same,VIOTR Ob,[4]; applied alone at 70 g/ha,0%
same,VIOTR Ob,[4]; applied alone at 140 g/ha,0%
same,HORVS Ob,[5]; applied alone at 17.5 g/ha,0%
same,HORVS Ob,[5]; applied alone at 35 g/ha,0%
same,HORVS Ob,[5]; applied alone at 70 g/ha,0%
same,HORVS Ob,[5]; applied alone at 140 g/ha,0%
same,PAPRH Ob,[6]; applied alone at 17.5 g/ha,0%
same,PAPRH Ob,[6]; applied alone at 35 g/ha,0%
same,PAPRH Ob,[6]; applied alone at 70 g/ha,0%
same,PAPRH Ob,[6]; applied alone at 140 g/ha,0%
same,POLCO Ob,[7]; applied alone at 17.5 g/ha,0%
same,POLCO Ob,[7]; applied alone at 35 g/ha,0%
same,POLCO Ob,[7]; applied alone at 70 g/ha,0%
same,POLCO Ob,[7]; applied alone at 140 g/ha,0%
same,TRZAS Ob,[9]; applied alone at 17.5 g/ha,0%
same,TRZAS Ob,[9]; applied alone at 35 g/ha,0%
same,TRZAS Ob,[9]; applied alone at 70 g/ha,0%
same,TRZAS Ob,[9]; applied alone at 140 g/ha,0%
same,VERPE Ob,[10]; applied alone at 17.5 g/ha,0%
same,VERPE Ob,[10]; applied alone at 35 g/ha,0%
same,VERPE Ob,[10]; applied alone at 70 g/ha,0%
same,VERPE Ob,[10]; applied alone at 140 g/ha,0%
O=C(C(Cl)Cl)N1CCOC12CCCCC2 [AD-67],TRZDU Ob (Observed values),[11]; safener 4.4 g/ha alone,0%
same,TRZDU Ob (Observed values),[11]; safener 8.8 g/ha alone,0%
same,TRZDU Ob (Observed values),[11]; safener 17.5 g/ha alone,0%
same,TRZDU Ob (Observed values),[11]; safener 35 g/ha alone,0%
same,HORVW Ob (Observed values),barley (HORVW); safener 4.4 g/ha alone,0%
same,HORVW Ob (Observed values),barley (HORVW); safener 8.8 g/ha alone,0%
same,HORVW Ob (Observed values),barley (HORVW); safener 17.5 g/ha alone,0%
same,HORVW Ob (Observed values),barley (HORVW); safener 35 g/ha alone,0%
same,PAPRH Ob (Observed values),[6]; safener 4.4 g/ha alone,0
same,PAPRH Ob (Observed values),[6]; safener 8.8 g/ha alone,0
same,PAPRH Ob (Observed values),[6]; safener 17.5 g/ha alone,0
same,PAPRH Ob (Observed values),[6]; safener 35 g/ha alone,0
same,TRZAW Ob (Observed values),[12]; safener 4.4 g/ha alone,0%
same,TRZAW Ob (Observed values),[12]; safener 8.8 g/ha alone,0%
same,TRZAW Ob (Observed values),[12]; safener 17.5 g/ha alone,0%
same,TRZAW Ob (Observed values),[12]; safener 35 g/ha alone,0%
same,LAMPU Ob (Observed values),[8]; safener 4.4 g/ha alone,0
same,LAMPU Ob (Observed values),[8]; safener 8.8 g/ha alone,0
same,LAMPU Ob (Observed values),[8]; safener 17.5 g/ha alone,0
same,LAMPU Ob (Observed values),[8]; safener 35 g/ha alone,0
